# Measured values: paper PMC9866191, “Novel 9-Benzylaminoacridine Derivatives as Dual Inhibitors of Phosphodiesterase 5 and Topoisomerase II for the Treatment of Colon Cancer” (Molecules, 2023)
# What was measured:
# CCRF-CEM = experiment: NCI-60 one-dose screen; type: cell-based; settings: Homo sapiens, Leukemia panel, single dose 10^−5 M, read-out: Growth inhibition %
# LOX IMVI = experiment: NCI-60 one-dose screen; type: cell-based; settings: Homo sapiens, Melanoma panel, single dose 10^−5 M, read-out: Growth inhibition %
# SF-295 = experiment: NCI-60 one-dose screen; type: cell-based; settings: Homo sapiens; SF-295, CNS Cancer panel; single dose 10^−5 M; read-out: Growth inhibition %
# SNB-19 = experiment: NCI-60 one-dose screen; type: cell-based; settings: Homo sapiens; SNB-19, CNS Cancer panel; single dose 10^−5 M; read-out: Growth inhibition %
# MDA-MB-435 = experiment: NCI-60 one-dose screen; type: cell-based; settings: Homo sapiens; MDA-MB-435, Melanoma panel; single dose 10^−5 M; read-out: Growth inhibition %
# UACC-62 = experiment: NCI-60 one-dose screen; type: cell-based; settings: Homo sapiens; UACC-62, Melanoma panel; single dose 10^−5 M; read-out: Growth inhibition %
# MCF7 = experiment: NCI-60 one-dose screen; type: cell-based; settings: Homo sapiens; MCF7, Breast Cancer panel; single dose 10^−5 M; read-out: Growth inhibition %
# PC-3 = experiment: NCI-60 one-dose screen; type: cell-based; settings: Homo sapiens; PC-3, Prostate Cancer panel; single dose 10^−5 M; read-out: Growth inhibition %
# OVCAR-5 = experiment: NCI-60 one-dose screen; type: cell-based; settings: Homo sapiens; OVCAR-5, Ovarian Cancer panel; single dose 10^−5 M; read-out: Growth inhibition %
# HT29 = experiment: NCI-60 one-dose screen; type: cell-based; settings: Homo sapiens, HT-29; HT29, Colon Cancer panel; single dose 10^−5 M; read-out: Growth inhibition %
# T-47D = experiment: NCI-60 one-dose screen; type: cell-based; settings: Homo sapiens, T47D, Breast Cancer panel, single dose 10^−5 M, read-out: Growth inhibition %
# SK-MEL-28 = experiment: NCI-60 one-dose screen; type: cell-based; settings: Homo sapiens; SK-MEL-28, Melanoma panel; single dose 10^−5 M; read-out: Growth inhibition %
# DU-145 = experiment: NCI-60 one-dose screen; type: cell-based; settings: Homo sapiens; DU-145, Prostate Cancer panel; single dose 10^−5 M; read-out: Growth inhibition %
# HL-60(TB) = experiment: NCI-60 one-dose screen; type: cell-based; settings: Homo sapiens, Leukemia panel, single dose 10^−5 M, read-out: Growth inhibition %
# RPMI-8226 = experiment: NCI-60 one-dose screen; type: cell-based; settings: Homo sapiens; RPMI-8226, Leukemia panel; single dose 10^−5 M; read-out: Growth inhibition %
# MDA-MB-468 = experiment: NCI-60 one-dose screen; type: cell-based; settings: Homo sapiens; MDA-MB-468, Breast Cancer panel; single dose 10^−5 M; read-out: Growth inhibition %
# KM12 = experiment: NCI-60 one-dose screen; type: cell-based; settings: Homo sapiens; KM12, Colon Cancer panel; single dose 10^−5 M; read-out: Growth inhibition %
# SK-MEL-2 = experiment: NCI-60 one-dose screen; type: cell-based; settings: Homo sapiens; SK-MEL-2, Melanoma panel; single dose 10^−5 M; read-out: Growth inhibition %
# 786-0 = experiment: NCI-60 one-dose screen; type: cell-based; settings: Homo sapiens; 786-0, Renal Cancer panel; single dose 10^−5 M; read-out: Growth inhibition %
# HS 578T = experiment: NCI-60 one-dose screen; type: cell-based; settings: Homo sapiens, Breast Cancer panel, single dose 10^−5 M, read-out: Growth inhibition %
# OVCAR-3 = experiment: NCI-60 one-dose screen; type: cell-based; settings: Homo sapiens; OVCAR-3, Ovarian Cancer panel; single dose 10^−5 M; read-out: Growth inhibition %
# TK-10 = experiment: NCI-60 one-dose screen; type: cell-based; settings: Homo sapiens; TK-10, Renal Cancer panel; single dose 10^−5 M; read-out: Growth inhibition %
# NCI-H322M = experiment: NCI-60 one-dose screen; type: cell-based; settings: Homo sapiens, Non-small cell lung panel, single dose 10^−5 M, read-out: Growth inhibition %
# NCI/ADR-RES = experiment: NCI-60 one-dose screen; type: cell-based; settings: Homo sapiens, Ovarian Cancer panel, single dose 10^−5 M, read-out: Growth inhibition %
# SR = experiment: NCI-60 one-dose screen; type: cell-based; settings: Homo sapiens, Leukemia panel, single dose 10^−5 M, read-out: Growth inhibition %
# CAKI-1 = experiment: NCI-60 one-dose screen; type: cell-based; settings: Homo sapiens; CAKI-1, Renal Cancer panel; single dose 10^−5 M; read-out: Growth inhibition %
# HCT-15 = experiment: NCI-60 one-dose screen; type: cell-based; settings: Homo sapiens; HCT-15, Colon Cancer panel; single dose 10^−5 M; read-out: Growth inhibition %
# SF-268 = experiment: NCI-60 one-dose screen; type: cell-based; settings: Homo sapiens; SF-268, CNS Cancer panel; single dose 10^−5 M; read-out: Growth inhibition %
# IGROV1 = experiment: NCI-60 one-dose screen; type: cell-based; settings: Homo sapiens, IGROV-1; IGROV1, Ovarian Cancer panel; single dose 10^−5 M; read-out: Growth inhibition %
# HCT-116 = experiment: MTT cell proliferation assay, HCT-116; settings: for % Inhibition at 10 µM: 72 h MTT, means ± SD; for IC50: read-out: IC50 μM, 72 h MTT, means ± SD, three experiments
# Description: (§1) In the MTT assay, 96-well culture plates were used. A total of 7 × 10^4 cells per well were seeded, and test materials were added to the cells at various concentrations [47, 48]. Human cancer and non-cancer cell lines were purchased commercially from the American Type Culture Collection (ATCC). After 72 h, the cytotoxicity of the compounds and paclitaxel (as a positive control group) was detected using the MTT method (thiazolyl blue tetrazolium bromide, Sigma-M2128). Absorbance values at 570 and 620 nm (OD = OD570–OD620) were measured using an ELISA reader (Anthos Labtec Instruments, Salzburg, Austria).
# CCD-966SK = experiment: MTT cell proliferation assay, CCD-966SK; settings: CCD966SK skin fibroblast, 72 h MTT; for IC50: read-out: IC50 μM
# Description: as §1
compound,measurement,setting,value
"Cc1cccc(CNc2c3ccccc3nc3ccccc23)c1 [Compound 3, Acridin-9-yl-(3-methylbenzyl)-amine]",inhibition at 10 µM,CCRF-CEM,85.2%
same,inhibition at 10 µM,LOX IMVI,93.8%
same,inhibition at 10 µM,SF-295,74.7%
same,inhibition at 10 µM,SNB-19,70.3%
same,inhibition at 10 µM,MDA-MB-435,70.9%
same,inhibition at 10 µM,UACC-62,57.2%
same,inhibition at 10 µM,MCF7,93.8%
same,inhibition at 10 µM,PC-3,75.1%
same,inhibition at 10 µM,OVCAR-5,64.2%
same,inhibition at 10 µM,HT29,94.8%
same,inhibition at 10 µM,T-47D,74.7%
same,inhibition at 10 µM,SK-MEL-28,41.2%
same,inhibition at 10 µM,DU-145,66.1%
same,inhibition at 10 µM,HL-60(TB),87.5%
same,inhibition at 10 µM,RPMI-8226,120%
same,inhibition at 10 µM,MDA-MB-468,100%
same,inhibition at 10 µM,KM12,74.4%
same,inhibition at 10 µM,SK-MEL-2,62%
same,inhibition at 10 µM,786-0,75.8%
same,inhibition at 10 µM,HS 578T,69.7%
same,inhibition at 10 µM,OVCAR-3,69.2%
same,inhibition at 10 µM,TK-10,61.6%
same,inhibition at 10 µM,NCI-H322M,59.7%
same,inhibition at 10 µM,NCI/ADR-RES,74.3%
same,inhibition at 10 µM,SR,103%
same,inhibition at 10 µM,CAKI-1,82.3%
same,inhibition at 10 µM,HCT-15,84.1%
same,inhibition at 10 µM,SF-268,48%
same,inhibition at 10 µM,IGROV1,80.5%
same,% Inhibition at 10 µM,HCT-116,66.71 ± 2.10%
same,IC50,HCT-116,4.6 ± 0.07 µM
same,% Inhibition at 10 µM,CCD-966SK,54.31 ± 0.98%
same,IC50,CCD-966SK,8.51 ± 0.07 µM
"COc1ccccc1CNc1c2ccccc2nc2ccccc12 [Compound 5, Acridin-9-yl-(2-methoxybenzyl)-amine]",inhibition at 10 µM,CCRF-CEM,62.5%
same,inhibition at 10 µM,LOX IMVI,81.1%
same,inhibition at 10 µM,SF-295,62.6%
same,inhibition at 10 µM,SNB-19,64.2%
same,inhibition at 10 µM,MDA-MB-435,57.4%
same,inhibition at 10 µM,UACC-62,39.5%
same,inhibition at 10 µM,MCF7,83.2%
same,inhibition at 10 µM,PC-3,56.8%
same,inhibition at 10 µM,OVCAR-5,50.2%
same,inhibition at 10 µM,HT29,82.3%
same,inhibition at 10 µM,T-47D,53.8%
same,inhibition at 10 µM,SK-MEL-28,20%
same,inhibition at 10 µM,DU-145,49.5%
same,inhibition at 10 µM,HL-60(TB),55.2%
same,inhibition at 10 µM,RPMI-8226,91.9%
same,inhibition at 10 µM,MDA-MB-468,71.7%
same,inhibition at 10 µM,KM12,67.1%
same,inhibition at 10 µM,SK-MEL-2,26.5%
same,inhibition at 10 µM,786-0,60.7%
same,inhibition at 10 µM,HS 578T,38%
same,inhibition at 10 µM,OVCAR-3,45.7%
same,inhibition at 10 µM,TK-10,44.5%
same,inhibition at 10 µM,NCI-H322M,51.4%
same,inhibition at 10 µM,NCI/ADR-RES,65.2%
same,inhibition at 10 µM,SR,90.1%
same,inhibition at 10 µM,CAKI-1,54.3%
same,inhibition at 10 µM,HCT-15,74%
same,inhibition at 10 µM,SF-268,34.9%
same,inhibition at 10 µM,IGROV1,73.7%
same,% Inhibition at 10 µM,HCT-116,63.71 ± 0.62%
same,IC50,HCT-116,6.83 ± 0.31 µM
same,% Inhibition at 10 µM,CCD-966SK,6.65 ± 1.18%
"Fc1ccc(CNc2c3ccccc3nc3ccccc23)cc1F [Compound 22, Acridin-9-yl-(3,4-difluorobenzyl)-amine]",inhibition at 10 µM,CCRF-CEM,58.5%
same,inhibition at 10 µM,LOX IMVI,87.5%
same,inhibition at 10 µM,SF-295,70.2%
same,inhibition at 10 µM,SNB-19,67.1%
same,inhibition at 10 µM,MDA-MB-435,50.8%
same,inhibition at 10 µM,UACC-62,40%
same,inhibition at 10 µM,MCF7,87.1%
same,inhibition at 10 µM,PC-3,64.3%
same,inhibition at 10 µM,OVCAR-5,55.4%
same,inhibition at 10 µM,HT29,86.6%
same,inhibition at 10 µM,T-47D,52.1%
same,inhibition at 10 µM,SK-MEL-28,17.6%
same,inhibition at 10 µM,DU-145,60.5%
same,inhibition at 10 µM,HL-60(TB),65.5%
same,inhibition at 10 µM,RPMI-8226,73.1%
same,inhibition at 10 µM,MDA-MB-468,111%
same,inhibition at 10 µM,KM12,46.7%
same,inhibition at 10 µM,SK-MEL-2,10.6%
same,inhibition at 10 µM,786-0,68.5%
same,inhibition at 10 µM,HS 578T,35.2%
same,inhibition at 10 µM,OVCAR-3,31.1%
same,inhibition at 10 µM,TK-10,48.9%
same,inhibition at 10 µM,NCI-H322M,61%
same,inhibition at 10 µM,NCI/ADR-RES,72.4%
same,inhibition at 10 µM,SR,83%
same,inhibition at 10 µM,CAKI-1,74.7%
same,inhibition at 10 µM,HCT-15,82%
same,inhibition at 10 µM,SF-268,42.8%
same,inhibition at 10 µM,IGROV1,77.2%
same,% Inhibition at 10 µM,HCT-116,56.92 ± 0.61%
same,IC50,HCT-116,6.99 ± 0.17 µM
same,% Inhibition at 10 µM,CCD-966SK,37.49 ± 7.38%
"Fc1ccc(CNc2c3ccccc3nc3ccccc23)cc1 [Compound 10, Acridin-9-yl-(4-fluorobenzyl)-amine]",inhibition at 10 µM,CCRF-CEM,74%
same,inhibition at 10 µM,LOX IMVI,90.6%
same,inhibition at 10 µM,SF-295,72.4%
same,inhibition at 10 µM,SNB-19,67.6%
same,inhibition at 10 µM,MDA-MB-435,65.2%
same,inhibition at 10 µM,UACC-62,49.8%
same,inhibition at 10 µM,MCF7,92.9%
same,inhibition at 10 µM,PC-3,73.1%
same,inhibition at 10 µM,OVCAR-5,61.5%
same,inhibition at 10 µM,HT29,83.9%
same,inhibition at 10 µM,T-47D,68.9%
same,inhibition at 10 µM,SK-MEL-28,31.8%
same,inhibition at 10 µM,DU-145,65.1%
same,inhibition at 10 µM,HL-60(TB),78.8%
same,inhibition at 10 µM,RPMI-8226,100%
same,inhibition at 10 µM,MDA-MB-468,88.5%
same,inhibition at 10 µM,KM12,71.7%
same,inhibition at 10 µM,SK-MEL-2,56.2%
same,inhibition at 10 µM,786-0,72.4%
same,inhibition at 10 µM,HS 578T,60.5%
same,inhibition at 10 µM,OVCAR-3,61.3%
same,inhibition at 10 µM,TK-10,69.8%
same,inhibition at 10 µM,NCI-H322M,61.5%
same,inhibition at 10 µM,NCI/ADR-RES,70.3%
same,inhibition at 10 µM,SR,93.4%
same,inhibition at 10 µM,CAKI-1,74.5%
same,inhibition at 10 µM,HCT-15,82.4%
same,inhibition at 10 µM,SF-268,46.8%
same,inhibition at 10 µM,IGROV1,78.1%
same,% Inhibition at 10 µM,HCT-116,67.57 ± 0.29%
same,IC50,HCT-116,2.75 ± 0.04 µM
same,% Inhibition at 10 µM,CCD-966SK,52.93 ± 1.00%
same,IC50,CCD-966SK,9.26 ± 0.21 µM
